Structures are written as SMILES. A value given as a limit tells only on which side of the number the result lay.

Data set [1] deals with Botryotinia fuckeliana (Botrytis cinerea). The data set can be described thus: Botryotinia fuckeliana (Botrytis cinerea) / liquid culture (gray mould). The data set is classed as cell-based. The note with it: 72 h, compared to untreated control, growth inhibition determined photometrically 3-4 days after application.
Data set [2] has as its system Magnaporthe grisea (Pyricularia oryzae). As to the kind of experiment: microbe, parasite or virus in culture. Conditions: read-out: control of Magnaporthe grisea. The data set is classed as cell-based.
For data set [3], the system named is Glomerella lagenarium (Colletotrichum lagenarium). As to the kind of experiment: Glomerella lagenarium (Colletotrichum lagenarium) / liquid culture (anthracnose). Conditions: Colletotrichum orbiculare, compared to untreated control, growth inhibition measured photometrically 3-4 days after application. It is filed as cell-based.
Data set [4] concerns Sclerotinia sclerotiorum. The data set can be described thus: microbe, parasite or virus in culture. The note with it: read-out: control of Sclerotinia sclerotiorum. The data set is classed as cell-based.
The test system of data set [5] is Mycosphaerella graminicola (Septoria tritici). The data set can be described thus: Mycosphaerella graminicola (Septoria tritici) / liquid culture (Septoria blotch). It is filed as cell-based. Conditions: Zymoseptoria tritici, compared to untreated control, growth inhibition determined photometrically 4-5 days after application.
The subject of data set [6] is Monographella nivalis (Microdochium nivale). As to the kind of experiment: Monographella nivalis (Microdochium nivale) / liquid culture (foot rot cereals). The data set is classed as cell-based. Conditions: compared to untreated control, growth inhibition determined photometrically 4-5 days after application.
Data set [7] deals with Fusarium culmorum. The data set can be described thus: microbe, parasite or virus in culture. The data set is classed as cell-based. The note with it: read-out: control of Fusarium culmorum.
Data set [8] relates to Mycosphaerella graminicola (Septoria tritici). The data set can be described thus: Mycosphaerella graminicola (Septoria tritici) on wheat / preventative. The data set is classed as in vivo. The note with it: Zymoseptoria tritici, wheat plants sprayed, inoculated one day after application, assessed 16-19 days after application vs untreated control.

In the case of `CC1(Cc2ccccc2)CC(C)(C)SC(c2cnc3c(F)cccc3c2)=N1` (centres unmarked) [E-7, 4-benzyl-2-(8-fluoro-3-quinolyl)-4,6,6-trimethyl-5H-1,3-thiazine], the inhibition of growth at 20 ppm is no less than 80% in [1]; no less than 80% in data set [2]; no less than 80% in data set [3]; no less than 80% in data set [4]; no less than 70% in data set [5]; no less than 80% in [6]. Besides, the inhibition of growth at 20 ppm in data set [7] is no less than 80%.

`C[C@@]1(Cc2ccccc2)C[C@@](C)(CCl)OC(c2cnc3c(F)cccc3c2)=N1` [E-10, (4R,6S)-4-benzyl-6-(chloromethyl)-2-(8-fluoro-3-quinolyl)-4,6-dimethyl-5H-1,3-oxazine] showed a melting point of 125 to 130 °C. In addition, in data set [1], the inhibition of growth at 20 ppm was no less than 80%. Moreover, the inhibition of growth at 20 ppm in [2] is no less than 80%. This compound came in with an inhibition of growth at 20 ppm in data set [3] of no less than 80%. In addition, in data set [4], the inhibition of growth at 20 ppm is no less than 80%. The same compound had an inhibition of growth at 20 ppm in data set [5] of no less than 70%. Moreover, the inhibition of growth at 20 ppm in [6] is no less than 80%. Further, the inhibition of growth at 20 ppm in data set [7] is no less than 80%.

For the compound `CCC1(C)CC(C)(Cc2ccccc2)N=C(c2cnc3c(F)cccc3c2)O1` (centres unmarked) [E-9, 4-benzyl-6-ethyl-2-(8-fluoro-3-quinolyl)-4,6-dimethyl-5H-1,3-oxazine], the inhibition of growth at 20 ppm in data set [1] was no less than 80%; in data set [2], no less than 80%; in data set [3], no less than 80%; in data set [4] it was no less than 80%; in data set [5], no less than 70%; in data set [6], no less than 80%. Also, in data set [7], the inhibition of growth at 20 ppm was no less than 80%.

`CC1(C)CC(Cc2ccccc2)N=C(c2cnc3c(F)cccc3c2)O1` (centres unmarked) [E-13, 4-benzyl-2-(8-fluoro-3-quinolyl)-6,6-dimethyl-4,5-dihydro-1,3-oxazine] registered a melting point of 90 to 92 °C. This compound showed an inhibition of growth at 20 ppm in data set [1] of no less than 80%. In data set [2], the inhibition of growth at 20 ppm is no less than 80%. The inhibition of growth at 20 ppm in [3] was no less than 80%. In data set [4], the inhibition of growth at 20 ppm was no less than 80%. The compound further came in with an inhibition of growth at 20 ppm in [5] of no less than 70%. The same compound came in with an inhibition of growth at 20 ppm in [6] of no less than 80%. In data set [7], the inhibition of growth at 20 ppm is no less than 80%.

`Fc1ccc2cc(C3=NC(Cc4ccccc4)CC4(CCC4)O3)cnc2c1F` (centres unmarked) [E-23, 8-benzyl-6-(7,8-difluoro-3-quinolyl)-5-oxa-7-azaspiro[3.5]non-6-ene] registered a melting point of 159 to 162 °C. In addition, the inhibition of growth at 20 ppm in data set [1] is no less than 80%. Moreover, the inhibition of growth at 20 ppm in [6] is no less than 80%. The pest or weed control at 60 ppm in data set [8] is no less than 80%.

As to `Cc1nc2c(F)cccc2cc1C1=NC(C)(Cc2ccccc2)CC(C)(C)O1` (centres unmarked) [E-16, 4-benzyl-2-(8-fluoro-2-methyl-3-quinolyl)-4,6,6-trimethyl-5H-1,3-oxazine], the inhibition of growth at 20 ppm in data set [1] is no less than 80%; in data set [2] it was no less than 80%; in data set [3], no less than 80%; in data set [4], no less than 80%; in [5], no less than 70%; in data set [6], no less than 80%. Besides, the inhibition of growth at 20 ppm in data set [7] was no less than 80%.

`CC1(C)CC(Cc2ccc(F)cc2)N=C(c2cnc3c(F)c(F)ccc3c2)O1` (centres unmarked) [E-18, 2-(7,8-difluoro-3-quinolyl)-4-[(4-fluorophenyl)methyl]-6,6-dimethyl-4,5-dihydro-1,3-oxazine] displayed a melting point of 118 to 121 °C. Besides, in data set [1], the inhibition of growth at 20 ppm was no less than 80%. Further, the inhibition of growth at 20 ppm in [2] was no less than 80%. In data set [4], the inhibition of growth at 20 ppm is no less than 80%. Also, in data set [5], the inhibition of growth at 20 ppm is no less than 70%. The same compound returned an inhibition of growth at 20 ppm in data set [6] of no less than 80%.

The values are drawn from patent publication US12012399B2, “Microbiocidal quinoline dihydro-(thiazine)oxazine derivatives” (priority 2018, dated 2024).
